Experiments:
[1] = tested on: spleen cells of mice; assay: Antigenic peptide-specific IFN-γ production (ELISA) by OVA peptide-stimulated spleen cells of immunised mice (Examples 3 and 6); type: in vivo, mouse; settings: Example 3, FIG. 4; C57BL/6 mice, intradermal once; spleen cells one week after administration, stimulated with OVA peptide 10 μg/mL, ELISA after 24 hours
Method: (1) One of the following was intradermally administered once to mice (C57BL/6 mouse, male, 7 weeks old): (1) antigenic peptide (OVA peptide, 5 μg) having an ovalbumin (OVA)-derived amino acid sequence (SEQ ID No. 1), (2) […] (5 μg) and CpG DNA (base sequence: […] (SEQ ID No. 2), 30 μg), (3) OVA peptide-dA40(S)/SPG complex (see Example 1, 5 μg), (4) OVA peptide-dA40(S)/SPG complex (prepared as in Example 1, 5 μg) and CpG DNA (30 μg), and (5) OVA peptide-dA40(S)/SPG complex (5 μg) and incomplete Freund's adjuvant (IFA). An investigation was performed to see whether antigen-specific interferon-γ (IFN-γ) was induced by, one week after administration, harvesting spleen cells from the mice, placing the cells in 96 wells (1.0×10^6 cells/well), and then stimulating the cells using OVA peptide (10 μg/mL).
Then 24 hours after stimulating the spleen cells by OVA peptide, enzyme-linked immunosorbent assay (ELISA) was used to quantitatively measure IFN-γ in the culture medium. […]
Then 24 hours after stimulating the spleen cells by OVA peptide, enzyme-linked immunosorbent assay (ELISA) was used to quantitatively measure IFN-γ in the culture medium.

[2] = tested on: spleen cells of mice; assay: Fraction of OVA peptide-specific CD8-positive (cytolytic) T cells in spleen cells of immunised mice, flow cytometer (Examples 4 and 7); type: in vivo, mouse; settings: Example 4, FIG. 5; spleen cells of Example 3 mice stimulated with OVA peptide-dA40(S)/SPG complex, cultured 6 days
Method: Mouse spleen cells were harvested from mice to which had been intradermally administered in Example 3 the (1) OVA peptide, (2) OVA peptide and CpG DNA, (3) OVA peptide-dA40(S)/SPG complex, or (4) OVA peptide-dA40(S)/SPG complex and CpG DNA. The harvested cells were stimulated using OVA peptide-dA40(S)/SPG complex and were cultured for 6 days. Then after antibody staining, a flow cytometer was used to evaluate the fraction of T cells that had cytotoxic specificity (CD8 positive) for OVA peptide.
The fraction of OVA peptide-specific CD8-positive T cells was low for the case (peptide) in which OVA peptide alone was administered, the case (peptide+CpG) in which OVA peptide and CpG DNA were simultaneously administered, and the case (peptide/SPG) in which OVA peptide-dA40(S)/SPG complex alone was administered.
The (1) OVA peptide, (2) OVA peptide and CpG DNA, (3) OVA peptide and CpG DNA-dA40(S)/SPG complex, or (4) OVA peptide-dA40(S)/CpG DNA-dA40(S)/SPG ternary complex prepared in Example 5 of Example 6 was intradermally administered, mouse spleen cells were harvested and stimulated using OVA peptide-dA40(S)/SPG complex, and the stimulated cells were cultured for 6 days. Then after antibody staining, a flow cytometer was used to evaluate the fraction of T cells that had cytotoxic specificity (CD8 positive) for OVA peptide.

## SIINFEKL (SEQ ID No. 1) (listed as Homo sapiens) [OVA peptide]
[1]
  OVA peptide-specific interferon (IFN-γ) reaction: No OVA peptide-specific interferon reaction was observed
[2]
  fraction of OVA peptide-specific CD8-positive T cells among the spleen cells: low
